Laboratory results published in ChEMBL document CHEMBL3352421, “Development of a new benzophenone-diketopiperazine-type potent antimicrotubule agent possessing a 2-pyridine structure” (ACS Med Chem Lett, 2014).
Activity calls are given as the source filed them. The rule behind the calls is not given here.

Experiments:
[1] = system: HT-29; test: Cytotoxicity against human HT-29 cells after 48 hrs by XTT/PMS assay; assay type: functional, cell-based; settings: HT-29, 48 h
[2] = system: HeLa; test: Cytotoxicity against human HeLa cells after 48 hrs by WST8 assay; assay type: functional, cell-based
[3] = system: HeLa; test: Inhibition of mitotic spindle formation in human HeLa cells at 7 and 30 nM by DAPI staining
[4] = molecular target: T1, Tubulin (Sus scrofa, UniProt P02554+P02550); test: Binding affinity to porcine tubulin incubated for 1 hr by spectrofluorometry; assay type: protein assay
[5] = molecular target: T1, Tubulin; test: Inhibition of porcine tubulin polymerization by spectrophotometry; assay type: protein assay
[6] = system: A549; test: Cytotoxicity against human A549 cells after 48 hrs by WST8 assay; assay type: functional, cell-based; settings: A549, 48 h
[7] = system: HeLa; test: Induction of multipolar spindle formation in human HeLa cells at 20 to 30 nM by DAPI staining; assay type: functional, cell-based
[8] = system: HeLa; test: Potency index, ratio of IC50 for Plinabulin to IC50 for test compound against human HeLa cells after 48 hrs by WST8 assay; assay type: functional
[9] = system: HT-29; test: Selectivity index, ratio of IC50 for human NHSF46 cells to IC50 for human HT-29 cells; assay type: functional
[10] = Cytotoxicity against human NHSF46 cells after 48 hrs by XTT/PMS assay; assay type: cell-based; settings: NHSF46, 48 h
[11] = system: HeLa; test: Induction of multipolar spindle formation in human HeLa cells at 7 nM by DAPI staining; assay type: functional, cell-based
[12] = system: A549; test: Potency index, ratio of IC50 for Plinabulin to IC50 for test compound against human A549 cells after 48 hrs by WST8 assay; assay type: functional
[13] = system: HT-29; test: Selectivity index, ratio of IC50 for human PMNC cells to IC50 for human HT-29 cells; assay type: functional
[14] = Cytotoxicity against human PMNC cells after 48 hrs by WST1 assay; assay type: functional, cell-based

Structure (SMILES): O=C(c1ccccc1)c1cccc(/C=c2\[nH]c(=O)/c(=C/c3cccnc3)[nH]c2=O)c1
- IC50 [1]: > 1 µM

Structure (SMILES): CC(C)(C)c1[nH]cnc1/C=c1\[nH]c(=O)/c(=C/c2ccccc2)[nH]c1=O [PLINABULIN]
- IC50 [2]: 0.0206 µM
- inhibition [3]: Active
- Kd [4]: 1 µM
- IC50 [5]: 1.8 µM
- IC50 [6]: 0.0357 µM
- Activity [7]: Active

Structure (SMILES): O=C1CNC(=O)/C(=C/c2cccc(C(=O)c3ccccc3)c2)N1
- IC50 [1]: > 20 µM

Structure (SMILES): O=C(c1ccccc1)c1cccc(/C=c2\[nH]c(=O)/c(=C/c3ncccn3)[nH]c2=O)c1
- IC50 [1]: 0.0753 µM

Structure (SMILES): CC(=O)N1CC(=O)N/C(=C\c2cccc(C(=O)c3ccccc3)c2)C1=O
- IC50 [1]: 8.8 µM

Structure (SMILES): Cc1[nH]cnc1/C=c1\[nH]c(=O)/c(=C/c2cccc(C(=O)c3ccccc3)c2)[nH]c1=O
- IC50 [1]: 0.015 µM

Structure (SMILES): O=C(c1ccccc1)c1cccc(/C=c2\[nH]c(=O)/c(=C/c3ccccn3)[nH]c2=O)c1
- Ratio IC50 [8]: 3.8
- Ratio IC50 [9]: 10
- IC50 [2]: 0.0054 µM
- IC50 [10]: 0.077 µM
- inhibition [3]: Active
- Kd [4]: 1.3 µM
- IC50 [1]: 0.007 µM
- Activity [11]: Active
- IC50 [5]: 1.2 µM
- Ratio IC50 [12]: 2.5
- IC50 [6]: 0.0142 µM
- Ratio IC50 [13]: 10
- IC50 [14]: 0.481 µM

Structure (SMILES): O=C(c1ccccc1)c1cccc(/C=c2\[nH]c(=O)/c(=C/c3ccccc3)[nH]c2=O)c1
- IC50 [1]: 0.0943 µM

Structure (SMILES): O=C(c1ccccc1)c1cccc(/C=c2\[nH]c(=O)/c(=C/c3ccncc3)[nH]c2=O)c1
- IC50 [1]: > 1 µM
